Laboratory results taken from article PMC8308845, “Discovery of Novel Chemical Series of OXA-48 β-Lactamase Inhibitors by High-Throughput Screening” (Pharmaceuticals, 2021).
“And” between values parts separate entries of the source, which are not always exact repeats. Equal entries are not always repeated.

Experiments:
[1] = test system: K. pneumoniae ATCC BAA-2524; test: MIC by broth microdilution, β-lactam-resistant strain producing OXA-48; type: cell-based, Klebsiella pneumoniae; details: Klebsiella pneumoniae, ATCCBAA2524, no β-lactam, BLI tested at 32 µg/mL, read-out: MIC, BLI alone
Source text: (§1) To evaluate the capability of restoring β-lactam susceptibility, the two most promising representatives of SC_2 (ID3) and SC_7 (ID2) were screened alone and in combination with ampicillin (AMP) and IMP against sensitive and resistant Gram-negative bacteria. Avibactam and tazobactam were also included in the MIC characterization as BLI reference compounds. Specifically, we used E. coli ATCC25922 as antibiotic-sensitive strain, while E. coli ATCC BAA-2523 and K. pneumoniae ATCC BAA-2524 as β-lactam-resistant bacteria, producing OXA-48 carbapenemase.
(§2) Test compounds and tazobactam were tested at 32 µg/mL, while avibactam was applied at 4 µg/mL. […] Both antibiotics were selected for the combination study as they can be hydrolyzed by the target OXA-48 enzyme.
(§3) MIC values were determined by the broth dilution method and interpreted using published guidelines described by Clinical and Laboratory Standards Institute (CLSI).
(§4) All BLIs were dissolved in 100% DMSO and they were tested at a fixed concentration of 32 µg/mL and 1% of DMSO final concentration. Avibactam was used as reference β-lactamase inhibitor. All antimicrobials were prepared in line with CLSI susceptibility testing standards. AMP (USP # 1033000; batch no. K1M493) was dissolved at 5.12 mg/mL, IMP (USP # 1337809; batch no. R038R0) and avibactam (Biochem # NXL 104; batch no. 20180726) were dissolved at 1.28 mg/mL in the respective solvents recommended by CLSI (2). Solutions at 4X the final concentrations of the test range were made in Cation adjusted Mueller-Hinton broth (CA-MHB, BD # 212322; batch no. 6117994; Expiry date: 29.02.2020) by serial dilutions, and then diluted 2-fold with CA-MHB (for antimicrobials alone), or with the BLIs/avibactam (for combinations of new/reference inhibitors and antimicrobials). Moreover, all BLIs were tested alone at a fixed concentration of 32 μg/mL. The final concentration of DMSO in the test tubes was 1% for each different combination.
(§5) 50 μL of each well were then transferred from the masterblock into 96-well plates to whom were then added 50 μL of the final inoculum. MIC tests were performed by broth microdilution in line with CLSI susceptibility testing standards. Bacterial inocula were prepared at ca. 1 × 10^6 CFU/mL by diluting 100-fold a 0.5 McFarland suspension in CA-MHB with TES (TREK Diagnostic Systems, Product code: T3462; Batch: 356347; Expiry date: 12-Jun-2019). 50 μL of antibacterial solutions at 2 × the final concentrations were diluted 2-fold with 50 μL of inoculum to give a final inoculum of ca. 5 × 10^5 CFU/mL and desired test concentrations of antibacterial agents. Test plates were incubated according to CLSI guidelines and read visually. MIC values corresponded to the first well with no visible growth.

OXA-48 = target: T1, OXA-48 (Klebsiella pneumoniae, UniProt Q6XEC0); test: OXA-48 primary enzymatic assay (nitrocefin substrate, fluorescence-quenching readout); type: biochemical; details: dose–response, median of triplicate wells; 15 min preincubation, 25 µM nitrocefin
T1 construct: made in house; host or cells: E. coli BL21(DE3), T7 expression system
Protocol: After an initial pilot run (three plates, consisting of 960 randomly selected compounds), the primary screening of the subset plates was carried out at 20 µM in single point against OXA-48 enzyme in a nitrocefin-based assay, using the fluorescence-quenching readout. This enzymatic assay employs the cephalosporin nitrocefin as OXA-48 substrate and takes advantage of the fluorescent properties of white microtiter plates. Chromogenic nitrocefin is hydrolyzed by β-lactamases to yield a product with increased absorbance properties (~495 nm) that quenches the plate fluorescence by absorbing the plate’s emission light. In this assay, test compounds that inhibit OXA-48 catalytic activity are predicted to reduce nitrocefin quenching of plate fluorescence, resulting in a quantitative increase in well fluorescence (ON-system for inhibitors). The nitrocefin-based epi-absorbance readout system has been successfully applied in HTS campaigns on other β-lactamases, such as IMP-1 and VIM-2, with the identification of inhibitors belonging to novel scaffolds displaying a favourable degree of selectivity and sub-micromolar potency.
The screening results were expressed as activity percent. […] Overall, the primary assay robustness was good, with Robust Z Prime factor (RZ′) equal to 0.86.
In total, 256 active molecules (125 from the subset and 131 from the full set) were then assayed in dose–response at eight concentrations from 60 to 0.002 µM with interplate triplicate data points.
The blaOXA gene coding for the OXA-48 ß-lactamase, originally cloned from the K. pneumonia 11978 (a clinical isolate from Istanbul Faculty Hospital, Istanbul, Turkey) was overexpressed via a T7 expression system in E. coli BL21(DE3), and its product, native protein, (final yield of 30 mg/L of culture) was subjected to several purification steps, including ion-exchange chromatography with Q-Sepharose and 20 mM Tris-HCl buffer (pH 9.0), followed by chromatography with S-Sepharose columns and 100 mM sodium phosphate buffer (pH 5.8). Elution of the beta-lactamase was performed with a K2SO4 gradient. Peaks of beta-lactamase activity were concentrated and were dialyzed with 100 mM phosphate buffer (pH 7.0). The OXA-48 enzyme was purified to homogeneity (with a degree of purity around 95.4%.)-as measured by 12% SDS PAGE [23]. OXA-48 protein stock solution (2 mg/mL) was finally prepared in 20 mM Hepes (pH 8,1). OXA-48 β-lactamase specific activity was measured by following the hydrolysis of 100 μM nitrocefin (ε: 17,000 M-1 cm^−1 at 482 nm; Δε: 15,000 M-1 cm^−1 at 482 nm) and corresponding to 60.45 μmoles min^−1 mg^−1 of OXA-48 (kcat = 28.85 s^−1) enzyme. A MW of 28,147 g/mol, calculated from the enzyme sequence was confirmed by MALDI-TOF analysis with a Mass error of ± 2.8 Da.
The primary assay was developed to monitor the enzymatic activity of OXA-48 taking advantage of the spectroscopic properties of white microtiter plates (Optiplate-384, PerkinElmer, #6007290), as indicated by Zuck et al.. Nitrocefin is chromogenic substrate for beta-lactamases with λmax = 395 nm (yellow). Upon hydrolysis by OXA-48, nitrocefin yields (2R)-2-[(R)-carboxy[2-(thiophen-2-yl)acetamido]methyl]-5-[(E)-2-(2,4-dinitrophenyl)ethenyl]-3,6-dihydro-2H-1,3-thiazine-4-carboxylic acid, with increased absorbance properties at λmax = 495 nm. Spectroscopic features of the reaction product are exploited to quench the plate intrinsic fluorescence by absorbing the plate’s emission light, which can be monitored by exciting the reaction at 485 nm and recording the emission at 520 nm. Therefore, the primary assay for HTS was an ON-assay, in which compounds targeting OXA-48 were predicted to elicit an increase of the fluorescence signal.
The primary assay was performed in reaction buffer (20 mM Hepes pH 8.0, 12.5 mM NaCl, 0.005% BSA, 0.0005% Brij-35) in the presence of 0.0014 ng/µL OXA-48 and 25 µM nitrocefin in a final volume of 20 µL/well in 384 MTP format. […]

E. coli ATCC BAA-2523 = test: MIC by broth microdilution, β-lactam-resistant strain producing OXA-48; type: cell-based, Escherichia coli; details: Escherichia coli, ATCCBAA2523, no β-lactam, BLI tested at 32 µg/mL, read-out: MIC, BLI alone
Source text: as §1, §2, §3, §4, §5

E. coli ATCC25922 = test: MIC by broth microdilution, antibiotic-sensitive strain; type: cell-based; details: Escherichia coli, no β-lactam, BLI tested at 32 µg/mL, read-out: MIC, BLI alone
Source text: as §1, §2, §3, §4, §5

T1 sequence (Q6XEC0 23-265, looked up): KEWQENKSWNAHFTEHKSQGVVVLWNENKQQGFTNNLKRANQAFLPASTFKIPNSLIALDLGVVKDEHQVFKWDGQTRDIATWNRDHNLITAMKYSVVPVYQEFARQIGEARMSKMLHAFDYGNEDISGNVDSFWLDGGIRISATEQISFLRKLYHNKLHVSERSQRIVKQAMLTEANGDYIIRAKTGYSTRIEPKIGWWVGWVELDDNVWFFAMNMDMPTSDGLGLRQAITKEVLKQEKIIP

MIC [1]: > 32 µg/mL | AC50 (OXA-48): 723 nM and 720 nM | MIC (E. coli ATCC BAA-2523): > 32 µg/mL | MIC (E. coli ATCC25922): > 32 µg/mL
Compound: O=C(O)c1ccc(/C=N/n2c(S)nnc2-c2ccc(Cl)cc2)cc1 [ID3]
